A short description of the assay: GAPDH and PEG-3 promoter luciferase suppression – cell-based, luminescence, set 2, counter-screen for PEG-3 promoter inhibitor project, dose response (AID 651549). The conditions noted are these: HeLa PEG-Prom-luciferase or GAPDH-reporter, 6/24 h. On the technique in general: A counterscreen serves to expose hits that act by an unwanted route or on another target.

Experimental findings from PubChem BioAssay AID651549 (Sanford-Burnham Center for Chemical Genomics, 2012) are described below.

The structures appear in SMILES notation. Active and inactive are the calls of the source.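 How the source made its calls: active means compounds blocking the PEG3 reporter with IC50 up to 10 µM at either incubation, yet sparing the GAPDH control reporter; inactive means the rest.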 Bounds are passed on as bounds.

By IC50 is commonly meant the concentration needed to halve the response being measured. Consider `CC1CC(C)C(=O)C(C(CC2CC(=O)NC(=O)C2)OC(=O)CC(=O)c2ccccc2)C1` (stereo not given), for which the IC50 is, setting by setting: (GAPDH, run 1, 6 h) 1.36 µM; (GAPDH, run 1, 24 h) 7.25 µM; (PEG-3, run 1, 6 h) 5.46 µM. Where the note is “PEG-3, run 1, 24 h”, the IC50 result was “inactive”.

As to `COc1ccc(Nc2ncnc3ccc(Br)cc23)c(OC)c1`, the 50% inhibitory concentration (IC50) was 1.16 µM (GAPDH, run 1, 6 h); 1.68 µM (GAPDH, run 1, 24 h); 1.05 µM (PEG-3, run 1, 6 h); 0.798 µM (PEG-3, run 1, 24 h).

On to `CCc1ccn2cc(-c3ccc4c(c3)OCO4)nc2c1`, for which the IC50 reads like this: (GAPDH, run 1, 6 h) 2.23 µM; (PEG-3, run 1, 6 h) 2.12 µM; (PEG-3, run 1, 24 h) 5.02 µM. Also, the IC50 result (GAPDH, run 1, 24 h) was “inactive”.

For the molecule `Cc1c(CN2CCC(CO)(CCOc3ccccc3)CC2)[nH]c2c(Cl)cccc12`, the IC50 entry is “inactive” (GAPDH, run 1, 6 h); “inactive” (GAPDH, run 1, 24 h); “inactive” (PEG-3, run 1, 6 h); “inactive” (PEG-3, run 1, 24 h).

Turning to `CCOc1ccc(-n2cc(-c3ccccc3)c3c(N4CCOCC4)ncnc32)cc1`, the IC50 (GAPDH, run 1, 6 h) was > 99 µM (inactive); the IC50 (GAPDH, run 1, 24 h) was > 99 µM (inactive); the IC50 (PEG-3, run 1, 6 h) was > 99 µM (inactive); the IC50 (PEG-3, run 1, 24 h) is > 99 µM (inactive).

In the case of `CN1CCC2(CC1)N=C(c1ccc(F)cc1)C(=S)N2C(=O)c1ccc(C(C)(C)C)cc1`, the IC50 result runs as follows: (GAPDH, run 1, 6 h) “inactive”; (GAPDH, run 1, 24 h) “inactive”; (PEG-3, run 1, 6 h) “inactive”; (PEG-3, run 1, 24 h) “inactive”.

As for `CCn1cc(C(=O)NCc2ccco2)c(=O)c2cc(S(=O)(=O)N3CC(C)CC(C)C3)ccc21` (stereo not given), under “GAPDH, run 1, 6 h”, the IC50 result is “inactive”. Also, the concentration for half-maximal inhibition (IC50) reads like this: (GAPDH, run 1, 24 h) 2.7 µM; (PEG-3, run 1, 6 h) > 99 µM (inactive); (PEG-3, run 1, 24 h) 2.63 µM.

In the case of `Cc1cc2cc(CCNC(=O)C(=O)c3c[nH]c4ccccc34)c(=O)[nH]c2cc1C`, the IC50 entry (GAPDH, run 1, 6 h) is “inactive”. Further, the concentration for half-maximal inhibition (IC50) was 4.9 µM (GAPDH, run 1, 24 h); > 99 µM (inactive) (PEG-3, run 1, 6 h); 7.83 µM (PEG-3, run 1, 24 h).

For `O=C(COc1ccc2c(c1)CCC2)Nc1ccccn1`, the 50% inhibitory concentration (IC50) is 2.7 µM (GAPDH, run 1, 6 h); 1.82 µM (GAPDH, run 1, 24 h); 2.41 µM (PEG-3, run 1, 6 h); 5.02 µM (PEG-3, run 1, 24 h).

For `COc1ccc(CC2C(=O)NC(C)C(=O)N(C)C3C(=O)N(C)C(Cc4ccc(O)c(c4)Oc4ccc(cc4)C3O)C(=O)NC(C)C(=O)NC(C)C(=O)N2C)cc1` (stereo not given), the IC50 is under 1 µM (GAPDH, run 1, 6 h); under 1 µM (GAPDH, run 1, 24 h); under 1 µM (PEG-3, run 1, 6 h); under 1 µM (PEG-3, run 1, 24 h).

As to `COC1CC(C)C(OC)c2cc(O)cc(c2O)NC(=O)C(C)=CC=CC(C)C(OC(N)=O)C(C)=CC(C)C1OC` (stereo not given), the IC50 result was “inactive” (GAPDH, run 1, 6 h); “inactive” (GAPDH, run 1, 24 h); “inactive” (PEG-3, run 1, 6 h); “inactive” (PEG-3, run 1, 24 h).

Consider `Cc1oc(-c2ccc3c(c2)OCCO3)cc1C(=O)O`, for which the IC50 is, setting by setting: (GAPDH, run 1, 6 h) 4.9 µM; (GAPDH, run 1, 24 h) 7.36 µM; (PEG-3, run 1, 6 h) 7.66 µM. For the setting “PEG-3, run 1, 24 h”, the IC50 entry was “inactive”.

On to `CC(=O)c1sc2c(c1OC(=O)c1ccc(Cl)cc1Cl)c(=O)n(-c1ccccc1)c(=S)n2-c1ccccc1`, for which the IC50 by setting is: (GAPDH, run 1, 6 h) 0.853 µM; (GAPDH, run 1, 24 h) 0.766 µM; (PEG-3, run 1, 6 h) > 99 µM (inactive); (PEG-3, run 1, 24 h) 5.59 µM.

In the case of `Cn1c(Cl)cnc1C1CC(=O)c2cc(Cl)ccc2O1` (stereo not given), the IC50 result was “inactive” (GAPDH, run 1, 6 h); “inactive” (PEG-3, run 1, 6 h); “inactive” (PEG-3, run 1, 24 h). For the same molecule, the 50% inhibitory concentration (IC50) (GAPDH, run 1, 24 h) was 9.11 µM.

In the case of `Cc1ccc2nc(NC(=O)CSCC(=O)OCC(=O)c3ccc(Br)cc3)sc2c1`, the IC50 reads like this: (GAPDH, run 1, 6 h) 3.81 µM; (GAPDH, run 1, 24 h) 1.98 µM; (PEG-3, run 1, 6 h) > 99 µM (inactive); (PEG-3, run 1, 24 h) 1.96 µM.

With `COC(=O)C1=C(CN2CCCc3ccccc32)NC(=O)NC1c1ccc(F)cc1` (stereo not given), the IC50 is, setting by setting: (GAPDH, run 1, 6 h) 1.39 µM; (GAPDH, run 1, 24 h) 0.789 µM; (PEG-3, run 1, 6 h) 0.625 µM; (PEG-3, run 1, 24 h) 0.681 µM.

For the molecule `CCC(C)(C)c1ccc(Oc2ccc(N)cc2)cc1`, the concentration for half-maximal inhibition (IC50) was 5.21 µM (GAPDH, run 1, 6 h); 0.566 µM (GAPDH, run 1, 24 h); 7.48 µM (PEG-3, run 1, 6 h); 7.31 µM (PEG-3, run 1, 24 h).

On to `CS(=O)(=O)c1ccc(-c2sc3ccccc3c2C#CCCO)cc1`, for which the IC50 entry by setting is: (GAPDH, run 1, 6 h) “inactive”; (GAPDH, run 1, 24 h) “inactive”; (PEG-3, run 1, 6 h) “inactive”; (PEG-3, run 1, 24 h) “inactive”.

In the case of `CCOC(=O)c1ccc2nc(Nc3nc4ccc(F)cc4s3)sc2c1`, the IC50 is > 99 µM (inactive) (GAPDH, run 1, 6 h); > 99 µM (inactive) (GAPDH, run 1, 24 h); 0.31 µM (PEG-3, run 1, 6 h); under 1 µM (PEG-3, run 1, 24 h).

For `Cc1cc(C(=O)Nc2cccc(C(=O)O)c2)oc1C`, for the setting “GAPDH, run 1, 6 h”, the IC50 is 7.74 µM. Also, the IC50 result was “inactive” (GAPDH, run 1, 24 h); “inactive” (PEG-3, run 1, 6 h); “inactive” (PEG-3, run 1, 24 h).
